The target in test [1] is PIK3CB (Human) (UniProt P42338). Description: Enzyme Assay.
Test [2] has as its target PIK3CD (Human) (UniProt O00329). In words: Enzyme Assay.
Test [3] has as its target PIK3CG (human) (UniProt P48736). In words: Enzyme Assay.
The target in test [4] is PIK3CD (Human) (UniProt O00329). In words: Cell-Based Assay. Particulars: raji.
Chain of PIK3CD (Human) (O00329 whole entry, looked up): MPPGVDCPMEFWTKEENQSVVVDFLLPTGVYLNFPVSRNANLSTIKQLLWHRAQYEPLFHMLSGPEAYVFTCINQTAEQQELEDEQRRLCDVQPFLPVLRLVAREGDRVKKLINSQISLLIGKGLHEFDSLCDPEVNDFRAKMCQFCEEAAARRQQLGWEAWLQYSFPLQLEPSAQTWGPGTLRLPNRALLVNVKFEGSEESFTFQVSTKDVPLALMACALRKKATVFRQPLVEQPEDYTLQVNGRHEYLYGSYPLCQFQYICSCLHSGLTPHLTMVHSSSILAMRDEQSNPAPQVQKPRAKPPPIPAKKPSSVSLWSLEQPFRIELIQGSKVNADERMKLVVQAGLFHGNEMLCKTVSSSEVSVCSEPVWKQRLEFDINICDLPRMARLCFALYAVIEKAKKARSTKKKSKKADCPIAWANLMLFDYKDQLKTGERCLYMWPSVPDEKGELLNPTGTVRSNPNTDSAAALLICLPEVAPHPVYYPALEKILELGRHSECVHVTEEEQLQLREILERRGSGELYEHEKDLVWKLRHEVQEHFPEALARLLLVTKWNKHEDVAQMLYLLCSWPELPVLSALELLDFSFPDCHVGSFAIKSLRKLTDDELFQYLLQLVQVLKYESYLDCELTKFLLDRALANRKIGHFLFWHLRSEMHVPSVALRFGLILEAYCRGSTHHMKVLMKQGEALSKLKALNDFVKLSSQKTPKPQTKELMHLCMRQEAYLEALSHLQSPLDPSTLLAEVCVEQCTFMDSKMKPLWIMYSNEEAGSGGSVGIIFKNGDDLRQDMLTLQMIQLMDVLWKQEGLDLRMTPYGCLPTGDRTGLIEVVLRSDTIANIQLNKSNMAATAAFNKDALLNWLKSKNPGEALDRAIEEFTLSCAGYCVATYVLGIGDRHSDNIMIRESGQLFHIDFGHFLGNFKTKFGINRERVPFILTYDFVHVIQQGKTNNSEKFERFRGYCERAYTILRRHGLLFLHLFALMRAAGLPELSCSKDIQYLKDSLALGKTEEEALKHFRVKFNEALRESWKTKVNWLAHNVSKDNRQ

Chain of PIK3CG (human) (P48736 whole entry, looked up): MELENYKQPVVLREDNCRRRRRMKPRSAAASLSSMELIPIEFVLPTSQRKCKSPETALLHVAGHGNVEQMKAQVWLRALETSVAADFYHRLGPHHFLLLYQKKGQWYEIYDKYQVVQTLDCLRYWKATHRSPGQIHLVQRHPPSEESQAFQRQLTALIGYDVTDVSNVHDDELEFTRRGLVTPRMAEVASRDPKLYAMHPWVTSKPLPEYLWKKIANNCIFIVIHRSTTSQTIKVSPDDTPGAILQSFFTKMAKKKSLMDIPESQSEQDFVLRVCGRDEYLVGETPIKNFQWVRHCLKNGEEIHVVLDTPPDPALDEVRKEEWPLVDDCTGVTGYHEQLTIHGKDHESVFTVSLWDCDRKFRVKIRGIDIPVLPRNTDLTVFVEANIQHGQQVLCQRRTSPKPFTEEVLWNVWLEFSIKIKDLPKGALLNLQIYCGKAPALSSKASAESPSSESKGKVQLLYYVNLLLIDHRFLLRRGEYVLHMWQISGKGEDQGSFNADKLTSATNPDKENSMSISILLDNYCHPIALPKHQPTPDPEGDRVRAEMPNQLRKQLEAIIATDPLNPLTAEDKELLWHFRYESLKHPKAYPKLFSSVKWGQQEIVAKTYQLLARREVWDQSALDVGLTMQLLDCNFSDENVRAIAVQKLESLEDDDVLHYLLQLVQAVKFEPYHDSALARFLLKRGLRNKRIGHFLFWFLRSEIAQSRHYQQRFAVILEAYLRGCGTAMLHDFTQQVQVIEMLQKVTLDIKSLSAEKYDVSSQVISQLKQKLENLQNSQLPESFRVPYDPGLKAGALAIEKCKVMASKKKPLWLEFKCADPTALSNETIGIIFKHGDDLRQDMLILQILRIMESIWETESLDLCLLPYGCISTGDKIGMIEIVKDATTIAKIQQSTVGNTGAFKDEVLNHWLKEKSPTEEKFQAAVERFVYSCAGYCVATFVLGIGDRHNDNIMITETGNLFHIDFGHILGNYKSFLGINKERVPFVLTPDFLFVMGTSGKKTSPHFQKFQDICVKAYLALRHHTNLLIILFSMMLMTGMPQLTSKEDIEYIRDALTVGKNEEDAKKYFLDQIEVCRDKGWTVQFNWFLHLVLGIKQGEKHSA
Chain of PIK3CB (Human) (P42338 whole entry, looked up): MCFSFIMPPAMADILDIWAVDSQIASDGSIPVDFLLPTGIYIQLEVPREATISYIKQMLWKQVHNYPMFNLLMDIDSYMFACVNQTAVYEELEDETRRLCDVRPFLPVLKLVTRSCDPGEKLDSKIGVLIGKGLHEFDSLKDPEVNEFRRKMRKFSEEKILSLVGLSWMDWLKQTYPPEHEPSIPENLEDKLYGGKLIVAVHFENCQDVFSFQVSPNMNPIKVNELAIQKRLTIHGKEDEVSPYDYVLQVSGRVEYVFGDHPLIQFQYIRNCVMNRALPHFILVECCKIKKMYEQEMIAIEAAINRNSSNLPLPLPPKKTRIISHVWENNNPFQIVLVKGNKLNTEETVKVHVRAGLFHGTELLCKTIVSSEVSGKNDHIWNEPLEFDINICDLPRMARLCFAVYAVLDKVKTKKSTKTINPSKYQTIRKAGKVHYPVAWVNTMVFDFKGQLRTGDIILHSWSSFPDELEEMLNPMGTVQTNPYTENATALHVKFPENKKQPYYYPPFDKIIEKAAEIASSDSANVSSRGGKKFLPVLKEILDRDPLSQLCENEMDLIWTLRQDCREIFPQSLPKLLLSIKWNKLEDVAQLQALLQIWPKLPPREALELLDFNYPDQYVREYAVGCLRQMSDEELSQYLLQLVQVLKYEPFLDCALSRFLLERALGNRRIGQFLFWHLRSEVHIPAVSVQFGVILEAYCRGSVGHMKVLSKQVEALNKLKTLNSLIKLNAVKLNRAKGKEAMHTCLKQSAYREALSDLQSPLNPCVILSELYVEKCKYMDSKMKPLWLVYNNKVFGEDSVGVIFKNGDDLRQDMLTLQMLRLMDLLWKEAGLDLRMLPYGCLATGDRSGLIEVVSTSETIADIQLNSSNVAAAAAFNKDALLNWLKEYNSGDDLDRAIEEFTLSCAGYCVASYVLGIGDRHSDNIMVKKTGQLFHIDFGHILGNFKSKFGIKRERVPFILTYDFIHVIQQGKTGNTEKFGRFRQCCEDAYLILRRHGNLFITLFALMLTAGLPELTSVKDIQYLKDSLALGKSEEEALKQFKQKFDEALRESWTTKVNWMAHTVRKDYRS

As for `C[C@H](NC(=O)c1c(N)nn2cccnc12)c1cc2cccc(C#CC(C)(C)N)c2c(=O)n1-c1ccccc1`, the IC50 in test [1] was in the range of 5000 to 10000 nM; in test [2], 5000 to 10000 nM; in test [3] it was 500 to 1000 nM; in test [4] it was 1000 to 10000 nM.

For the molecule `C[C@H](NC(=O)c1c(N)nn2cccnc12)c1cc2cccc(C#Cc3cncn3C)c2c(=O)n1-c1ccccc1`, the IC50 in test [1] lay in the range of 5000 to 10000 nM; in test [2], 5000 to 10000 nM; in test [3], 100 to 500 nM; in test [4] it was 500 to 1000 nM.

On to `Cc1nc(C#Cc2cccc3cc([C@H](C)NC(=O)c4c(N)nn5cccnc45)n(-c4ccccc4)c(=O)c23)cs1`, for which the IC50 in test [1] fell in the range of 5000 to 10000 nM; in test [2], 5000 to 10000 nM; in test [3] it was 1 to 100 nM; in test [4], 100 to 500 nM.

As to `C[C@H](NC(=O)c1c(N)nn2cccnc12)c1cc2cccc(C#CC3CNC3)c2c(=O)n1-c1ccccc1`, the IC50 in test [1] lay within 5000 to 10000 nM; in test [2], 1000 to 5000 nM; in test [3] it was 500 to 1000 nM; in test [4] it was 1000 to 10000 nM.

With `Cc1nc(C)c(C#Cc2cccc3cc([C@H](C)NC(=O)c4c(N)nn5cccnc45)n(-c4ccccc4)c(=O)c23)s1`, the IC50 in test [1] fell in the range of 5000 to 10000 nM; in test [2], 5000 to 10000 nM; in test [3], 500 to 1000 nM; in test [4], 1000 to 10000 nM.

As to `C[C@H](NC(=O)c1c(N)nn2cccnc12)c1cc2cccc(C#Cc3cc[nH]c(=O)c3)c2c(=O)n1-c1ccccc1`, the IC50 in test [1] fell in the range of 5000 to 10000 nM; in test [2], 5000 to 10000 nM; in test [3], 100 to 500 nM; in test [4] it was 100 to 500 nM.

Turning to `C[C@H](NC(=O)c1c(N)nn2cccnc12)c1cc2cccc(C#Cc3cscn3)c2c(=O)n1-c1ccccc1`, the IC50 in test [1] was in the range of 1000 to 5000 nM; in test [2], 1000 to 5000 nM; in test [3], 1 to 100 nM; in test [4] it was 100 to 500 nM.

On to `C[C@H](NC(=O)c1c(N)nn2cccnc12)c1cc2cccc(C#Cc3ccnn3C)c2c(=O)n1-c1ccccc1`, for which the IC50 lay in the range of 5000 to 10000 nM in test [1], 5000 to 10000 nM in test [2], 100 to 500 nM in test [3] and 500 to 1000 nM in test [4].

Consider `C[C@H](NC(=O)c1c(N)nn2cccnc12)c1cc2cccc(C#Cc3ccncc3)c2c(=O)n1-c1ccccc1`, for which the IC50 in test [1] lay in the range of 5000 to 10000 nM; in test [2], 5000 to 10000 nM; in test [3], 100 to 500 nM; in test [4] it was 100 to 500 nM.

On to `Cc1ncc(C#Cc2cccc3cc([C@H](C)NC(=O)c4c(N)nn5cccnc45)n(-c4ccccc4)c(=O)c23)n1C`, for which the IC50 in test [1] is 5000 to 10000 nM; in test [2], 5000 to 10000 nM; in test [3], 1 to 100 nM; in test [4], 500 to 1000 nM.

Regarding `C[C@H](NC(=O)c1c(N)nn2cccnc12)c1cc2cccc(C#CC(C)(C)O)c2c(=O)n1-c1ccccc1`, the 50% inhibitory concentration (IC50) in test [1] lay in the range of 5000 to 10000 nM; in test [2], 5000 to 10000 nM; in test [3], 100 to 500 nM; in test [4], 1000 to 10000 nM.

For `C[C@H](NC(=O)c1c(N)nn2cccnc12)c1cc2cccc(C#CC=O)c2c(=O)n1-c1ccccc1`, the IC50 was in the range of 1 to 500 nM in test [1], 1000 to 5000 nM in test [2], 1 to 100 nM in test [3] and 100 to 500 nM in test [4].

For the molecule `C[C@H](NC(=O)c1c(N)nn2cccnc12)c1cc2cccc(C#Cc3nccs3)c2c(=O)n1-c1ccccc1`, the IC50 is 5000 to 10000 nM in test [1], 5000 to 10000 nM in test [2], 100 to 500 nM in test [3] and 100 to 500 nM in test [4].

As for `Cc1nn(C)c(C)c1C#Cc1cccc2cc([C@H](C)NC(=O)c3c(N)nn4cccnc34)n(-c3ccccc3)c(=O)c12`, the IC50 in test [1] lay within 5000 to 10000 nM; in test [2], 5000 to 10000 nM; in test [3], 1000 to 5000 nM; in test [4] it was 1000 to 10000 nM.

With `CC#Cc1cccc2cc(C(C)NC(=O)c3c(N)nn4cccnc34)c(-c3ccccc3)nc12` (stereo not given), the IC50 was in the range of 1000 to 5000 nM in test [1], 1000 to 5000 nM in test [2], 100 to 500 nM in test [3] and 1 to 100 nM in test [4].

For `C#Cc1cccc2nc([C@H](C)NC(=O)c3c(N)nn4cccnc34)n(C)c(=O)c12`, the IC50 was in the range of 500 to 1000 nM in test [1], 1000 to 5000 nM in test [2], 500 to 1000 nM in test [3] and 1 to 100 nM in test [4].

For `C[C@H](NC(=O)c1c(N)nn2cccnc12)c1cc2cccc(NC(=O)c3cnn(C)c3)c2c(=O)n1-c1ccccc1`, the IC50 in test [1] was in the range of 5000 to 10000 nM; in test [2], 5000 to 10000 nM; in test [3], 1000 to 5000 nM; in test [4], 1000 to 10000 nM.

Turning to `C[C@H](O)C#Cc1cccc2cc([C@H](C)NC(=O)c3c(N)nn4cccnc34)n(-c3ccccc3)c(=O)c12`, the IC50 in test [1] lay in the range of 1000 to 5000 nM; in test [2], 1000 to 5000 nM; in test [3], 1 to 100 nM; in test [4] it was 100 to 500 nM.

As for `C[C@H](NC(=O)c1c(N)nn2cccnc12)c1cc2cccc(C#CC3CCN(S(C)(=O)=O)CC3)c2c(=O)n1-c1ccccc1`, the half-inhibitory concentration (IC50) in test [1] is 5000 to 10000 nM; in test [2], 5000 to 10000 nM; in test [3], 500 to 1000 nM; in test [4], 500 to 1000 nM.

For `C#Cc1cccc2nc([C@H](C)NC(=O)c3c(N)nn4cccnc34)n(-c3ccc(F)cc3)c(=O)c12`, the IC50 lay within 5000 to 10000 nM in test [1], 1000 to 5000 nM in test [2], 1 to 100 nM in test [3] and 1 to 100 nM in test [4].

One may read the IC50 as the concentration that gives 50% inhibition.

The record behind these values is the Kinase Knowledgebase extract (Sharma et al. 2016).
